Numbered stars: 1 amine (or outer) side, 2 acyl side, 3 side chain; on linkers, the order of the positions; unused ones are H or OH. Bridge positions count the residues as written; N and C are the ends. Square brackets hold non-standard residues; d marks the D form. Peptide text beside a SMILES is read from it. * marks the point of attachment. Adda = CO[C@@H](Cc1ccccc1)[C@@H](C)/C=C(C)/C=C/[C@H](N[*:1])[C@H](C)C(=O)[*:2]; dAsp(3S-Me) = C[C@H](C(=O)[*:3])[C@@H](N[*:1])C(=O)[*:2]; d(γGlu) = O=C(O)[C@@H](CCC(=O)[*:2])N[*:1]; NMeDha = C=C(NC)C(=O)O; Propargyl = C#CC*
Legend:
[1] = biological target: type 1 protein phosphatase; settings: cited from earlier work
[2] = biological target: type 2A protein phosphatase; settings: cited from earlier work
OATP1B1 = assay: in vitro; settings: human
OATP1B3 = assay: in vitro; settings: human
[3] = biological target: protein phosphatase-1 catalytic subunit (a-Isoform from rabbit, Sigma-Aldrich) (Oryctolagus cuniculus, UniProt P62139)
Chain of protein phosphatase-1 catalytic subunit (a-Isoform from rabbit, Sigma-Aldrich) (P62139 whole entry, looked up, canonical isoform): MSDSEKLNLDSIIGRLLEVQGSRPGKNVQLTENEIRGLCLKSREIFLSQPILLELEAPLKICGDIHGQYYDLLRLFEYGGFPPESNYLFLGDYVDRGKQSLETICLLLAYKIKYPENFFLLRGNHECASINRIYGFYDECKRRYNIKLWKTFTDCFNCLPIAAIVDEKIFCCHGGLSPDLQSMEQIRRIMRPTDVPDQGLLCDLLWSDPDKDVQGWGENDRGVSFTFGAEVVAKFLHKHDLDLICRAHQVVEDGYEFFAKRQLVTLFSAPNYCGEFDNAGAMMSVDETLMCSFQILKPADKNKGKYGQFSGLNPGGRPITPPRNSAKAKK

Row | Compound | Ratio of IC50_OATP1B1/ IC50_PPI (HEK293 OATP1B1+) | IC50 (HEK293 OATP1B1+; read-out: IC50_OATP1B1 ± SE) | Ratio of IC50_OATP1B3/ IC50_PPI (HEK293 OATP1B3+) | IC50 (HEK293 OATP1B3+; read-out: IC50_OATP1B3 ± SE) | IC50 [1] | IC50 [2] | IC50 (OATP1B1) | IC50 (OATP1B3) | increase of IC50_OATP1B1 compared to the corresponding MC-PrgTyr-Arg monomer (HEK293 OATP1B1+) | increase of IC50_OATP1B1 in comparison to MC-LR (HEK293 OATP1B1+) | increase of IC50_OATP1B3 compared to the MC-PrgTyr-Arg monomer (HEK293 OATP1B3+) | increase of IC50_OATP1B3 in comparison to MC-LR (HEK293 OATP1B3+) | lower IC50_PPI compared to the IC50_PPI of the MC-LR reference cytotoxin [3] | lower IC50_PPI compared to the IC50_PPI of the corresponding MC-PrgTyr-Arg monomer [3]
1 | C=C1C(=O)N[C@H](C)C(=O)N[C@@H](CC(C)C)C(=O)N[C@@H](C(=O)O)[C@H](C)C(=O)N[C@@H](CCCNC(=N)N)C(=O)N[C@@H](/C=C/C(C)=C/[C@H](C)[C@H](Cc2ccccc2)OC)[C@H](C)C(=O)N[C@@H](C(=O)O)CCC(=O)N1C [MC-LR, microcystin-LR, reference compound] (R[Adda][d(γGlu)][NMeDha][dA]L[dAsp(3S-Me)]-OH; lactam N-7) | 6.3 | 17.1 ± 2.1 nM | 2.9 | 7.9 ± 1.7 nM | 0.03 nM | 0.04 nM | – | – | – | – | – | – | – | –
2 | C#CCOc1ccc(C[C@@H]2NC(=O)[C@@H](C)NC(=O)C(=C)N(C)C(=O)CC[C@H](C(=O)O)NC(=O)[C@@H](C)[C@H](/C=C/C(C)=C/[C@H](C)[C@H](Cc3ccccc3)OC)NC(=O)[C@H](CCCNC(=N)N)NC(=O)[C@@H](C)[C@H](C(=O)O)NC2=O)cc1 [MC-PrgTyr-Arg, cyclo(D-Ala-PrgTyr-D-MeAsp-Arg-Adda-D-Glu-Mdha), reference compound] (R[Adda][d(γGlu)][NMeDha][dA]Y(Propargyl)[dAsp(3S-Me)]-OH; lactam N-7) | – | – | – | – | – | – | 82.2 ± 4.5 nM | 40.4 ± 36.6 nM | – | – | – | – | – | –
3 | C=C1C(=O)N[C@H](C)C(=O)N[C@@H](Cc2ccc(OCc3cn(CC(=O)N4CCN(C(=O)Cn5cc(COc6ccc(C[C@@H]7NC(=O)[C@@H](C)NC(=O)C(=C)N(C)C(=O)CC[C@H](C(=O)O)NC(=O)[C@@H](C)[C@H](/C=C/C(C)=C/[C@H](C)[C@H](Cc8ccccc8)OC)NC(=O)[C@H](CCCNC(=N)N)NC(=O)[C@@H](C)[C@H](C(=O)O)NC7=O)cc6)nn5)CC4)nn3)cc2)C(=O)N[C@@H](C(=O)O)[C@H](C)C(=O)N[C@@H](CCCNC(=N)N)C(=O)N[C@@H](/C=C/C(C)=C/[C@H](C)[C@H](Cc2ccccc2)OC)[C@H](C)C(=O)N[C@@H](C(=O)O)CCC(=O)N1C [MC-PrgTyr-Arg-Dimer-1] | – | – | – | – | – | – | 2000 ± 711 nM | 1060 ± 302 nM | 24 fold | more than 116 fold | 26 fold | 134 fold | about 10 fold | more than 20 fold
4 | C=C1C(=O)N[C@H](C)C(=O)N[C@@H](Cc2ccc(OCc3cn(CC(=O)N4CCN(C(=O)[C@H](CCCCN)n5cc(COc6ccc(C[C@@H]7NC(=O)[C@@H](C)NC(=O)C(=C)N(C)C(=O)CC[C@H](C(=O)O)NC(=O)[C@@H](C)[C@H](/C=C/C(C)=C/[C@H](C)[C@H](Cc8ccccc8)OC)NC(=O)[C@H](CCCNC(=N)N)NC(=O)[C@@H](C)[C@H](C(=O)O)NC7=O)cc6)nn5)CC4)nn3)cc2)C(=O)N[C@@H](C(=O)O)[C@H](C)C(=O)N[C@@H](CCCNC(=N)N)C(=O)N[C@@H](/C=C/C(C)=C/[C@H](C)[C@H](Cc2ccccc2)OC)[C@H](C)C(=O)N[C@@H](C(=O)O)CCC(=O)N1C [MC-PrgTyr-Arg-Dimer-2] | – | – | – | – | – | – | > 3000 nM | 1850 ± 309 nM | more than 36 fold | more than 175 fold | 45 fold | 234 fold | about 16 fold | more than 50 fold
